From patent publication US20260224674A1, “COMPOSITIONS COMPRISING PEDF-DERIVED SHORT PEPTIDES AND MESENCHYMAL STEM CELLS FOR BONE/CARTILAGE REGENERATION” (BRIM Biotechnology, Inc., priority 2022, published 2026)

Columns and labels:
[1] = tested on: ACLT surgery induced osteoarthritis mouse model; assay: OARSI histologic scoring of cartilage degradation in ACLT surgery induced OA murine model; format: in vivo
Method: (§1) The OA murine model is induced by anterior cruciate ligament (ACLT) surgery. In brief, a medial arthrotomy was performed. With the knee in full flexion, the patella was dislocated laterally, the anterior cruciate ligament (ACLT) was transected, and then the wounds were closed.
(§2) The ACLT surgery was performed on the unilateral knees of each mouse for 2 months prior to the treatments. Twenty mice were randomly divided into 5 groups: (i) non-treated group [n=3]; (ii) vehicle-treated group [n=4]; (iii) PDSP-treated group [n=5], (iv) vehicle combined with IPFP-MSC-treated group [n=3]; (v) PDSP combined with IPFP-MSC-treated group [n=5] in ACLT surgery induced OA groups, while the knees without surgery serve as sham-operated group [n=4]. At eight weeks after ACLT surgery (first injection), the knee joints of the non-treated, vehicle-treated, or PDSP-treated groups were intra-articular injected, respectively, with 0.01 mL PBS, vehicle, or PDSP, while those of the vehicle or PDSP combined with IPFP-MSC groups were injected with hMSCs in 0.01 mL. MSCs were intra-articular injected at the first treatment only (i.e., at 8 weeks). For the second treatments (two weeks after MSC injections or 10 weeks after ACLT surgery), those of the vehicle or PDSP combined with IPFP-MSC injection groups were injected with 0.01 mL vehicle or PDSP. […]

[2] = tested on: ACLT surgery induced osteoarthritis mouse model; assay: Safranin O and H&E histological staining of the murine knee joints; format: in vivo; conditions: ACLT surgery induced OA mice; compared with non-treated OA groups
Method: as §1, §2

[3] = tested on: type II collagen; assay: Type II collagen immunohistochemistry (IHC) staining of the murine knee joint; format: in vivo, mouse; conditions: ACLT surgery induced OA mice; compared with non-treated and vehicle-treated OA groups
Method: as §1, §2

[4] = tested on: type X collagen; assay: Type X collagen immunohistochemistry (IHC) staining of the murine knee joint; format: in vivo, mouse; conditions: ACLT surgery induced OA mice
Method: as §1, §2

[5] = tested on: human bone marrow-derived mesenchymal stem cells (hBM-MSC); assay: hBM-MSC spheroid chondrogenesis, Alcian Blue staining at day 14; format: cell-based; conditions: PDSP 10 μM, chondrogenic differentiation medium with TGFβ1 10 ng/ml
Method: To shed light on possible mechanisms for the effects of PDSP chondrogenesis, further experiments were conducted to assess the effects of PDSP on MSC. The MSC used in this study are human bone marrow-derived mesenchymal stem cells (hBM-MSC) from Gibco (StemPro™ BM Mesenchymal Stem Cells). […] Human bone marrow MSC spheroids were cultured with chondrogenic differentiation medium, with or without TGFβ1 and with or without PDSP. The media were changed every 3 days. On day 14, the cartilage spheroids were collected for evaluation. The various media compositions are as follows (the base medium is a high-glucose DMEM supplemented with 1×10^−7M dexamethasone, 1×10^−3M sodium pyruvate, 1.7×10^−4M L-ascorbic acid-2-phosphate, 3.5×10^−4M proline, 5 mL ITS+Premix in 500 mL medium, and 1% antibiotic): […]

Sequence: SLGAEQRTESIIHRALYYDLISSPDIHGT (listed as Homo sapiens) [PDSP, PEDF-derived short peptide]
- OARSI scores ([1]; ACLT surgery induced OA groups, text values with their spread (SEM per Table 2)): 3.47±0.19
- The histologic scoring of murine OA (OARSI score), Average ([1]; ACLT surgery induced osteoarthritis mice, intra-articular injection at 8 and 10 weeks after surgery, average over animals): 3.47
- Cartilage loss and surface irregularity in the medial and lateral compartments (safranin O and H&E staining) [2]: less cartilage loss and surface irregularity
- Expression of type II collagen (IHC) [3]: increased
- Type X collagen signals (IHC) [4]: decreased
- Cartilage spheroids size (total area) [5]: increase the cartilage spheroids size
- Chondrogenesis (Alcian blue positive area; differentiation of hBM-MSC into chondrocytes) [5]: promote chondrogenesis
